The results in this text go back to patent US8287934B2, “Use of diacetyl dimer as an aromatic and/or flavouring substance” (Symrise AG, priority 2006, dated 2012).

Series [1] in a line: Tasting in sweet/salty solution (flavour profile by testers). The class given is in vivo. As to the method: The actions found were evaluated with a scale of from 1 (action scarcely perceptible) to 9 (action highly perceptible).
The 5-acetyl-2,5-dimethyl-2-hydroxy-tetrahydrofuran-3-one from Example 1 (2 ppm diacetyl dimer of formula (I) in aqueous 5 wt. % sucrose or 0.5% sodium chloride solution) was investigated for its flavouring action by 9 testers.
The 2,5-diacetyl-3a,5,6,6a-tetrahydro-6a-hydroxy-2,3a,5-trimethylfuro[2,3-d]-1,3-dioxole from Example 1a (1 ppm diacetyl trimer of formula (II) in aqueous 5 wt. % sucrose or 0.5% sodium chloride solution) was investigated for its flavouring action by 9 testers.
The aromatic and/or flavouring composition containing diacetyl dimer of formula (I) and diacetyl trimer of formula (II) from example (1b) (1 ppm of the composition in aqueous 5 wt. % sucrose or 0.5% sodium chloride solution) was investigated for its flavouring action by 7 testers.
For comparison, a flavour profile of diacetyl (1 ppm in aq. 5% sucrose or 0.5% sodium chloride solution) was produced under otherwise identical conditions: fatty (oily) (5), cream (5), butter (7), milk (4), condensed milk (4), fruity (2), cheesy (2), sweet (4), vanillin (2), intensity (7), impact (7), fullness (7), adhesive (5), soft (6).

Series [2] in a line: Stability on heating and in formulations. In kind it is physicochemical. The conditions noted are these: for decomposition when heated: heated at 60° C. to 100° C. for 10 minutes.
Setting [3] is: 1 ppm in aq. 5% sucrose or 0.5% sodium chloride solution, scale 1 to 9.
Setting [4] is: 1 ppm in aqueous 5 wt. % sucrose or 0.5% sodium chloride solution, scale 1 (scarcely perceptible) to 9 (highly perceptible).
Setting [5] is: 1 ppm in aqueous 5 wt. % sucrose or 0.5% sodium chloride solution, scale 1 to 9.
Where [6] appears, read: 2 ppm in aqueous 5 wt. % sucrose or 0.5% sodium chloride solution, scale 1 to 9.

For the molecule `CC(=O)C(C)=O` [diacetyl, 2,3-butanedione], in series [1] (setting [3]), the “flavour profile: cheesy” value turned out to be 2, the “flavour profile: condensed milk” value is given as 4, the “flavour profile: fruity” value is 2 and the “flavour profile: milk” value worked out at 4. For the same molecule, the “flavour profile: fatty (oily)” value in series [1] (setting [4]) came to 5. Besides, in series [1] (setting [5]), the “flavour profile: adhesive” value was determined as 5, the “flavour profile: butter” value is reported as 7, the “flavour profile: cream” value stood at 5 and the “flavour profile: fullness” value stood at 7. In series [1] (setting [5]), the “flavour profile: impact” value came out at 7, the “flavour profile: intensity” value was 7, the “flavour profile: soft” value worked out at 6 and the “flavour profile: sweet” value is 4. In addition, the “flavour profile: vanillin” value in series [1] (setting [5]) turned out to be 2.

Take `CC(=O)C1(C)CC(=O)C(C)(O)O1` (racemic) [diacetyl dimer of formula (I), 5-acetyl-2,5-dimethyl-2-hydroxy-tetrahydrofuran-3-one]: the “flavour profile: cream” value in series [1] (2 ppm in aqueous 5 wt. % sucrose or 0.5% sodium chloride solution, scale 1 (scarcely perceptible) to 9 (highly perceptible)) turned out to be 5. For the same molecule, in series [1] (setting [6]), the “flavour profile: butter” value was 5, the “flavour profile: caramel” value amounted to 3, the “flavour profile: fullness” value amounted to 6 and the “flavour profile: intensity” value worked out at 5. Further, in series [1] (setting [6]), the “flavour profile: soft” value is recorded as 6, the “flavour profile: sweet” value was 5, the “flavour profile: toffee” value was found to be 4 and the “flavour profile: vanillin” value was determined as 3. In addition, the decomposition when heated entry in series [2] is reported as “does not decompose”. Further, the “stability in formulations compared with diacetyl” value in series [2] (nutrition, oral hygiene, luxury product or oral pharmaceutical formulations, in particular acidic or basic pH-value) is given as “significantly more stable than diacetyl”.

Turning to `CC(=O)C1(C)CC2(O)OC(C)(C(C)=O)OC2(C)O1` (racemic) [diacetyl trimer of formula (II), 2,5-diacetyl-3a,5,6,6a-tetrahydro-6a-hydroxy-2,3a,5-trimethylfuro[2,3-d]-1,3-dioxole], in series [1] (setting [4]), the “flavour profile: fatty (oily)” value is on record as 7. In series [1] (setting [5]), the “flavour profile: adhesive” value was found to be 8, the “flavour profile: butter” value is reported as 8, the “flavour profile: caramel” value is 4 and the “flavour profile: cream” value was determined as 6. In series [1] (setting [5]), the “flavour profile: fresh cheese/quark” value was 4, the “flavour profile: fullness” value came out at 7, the “flavour profile: impact” value was 7 and the “flavour profile: intensity” value was 6. In addition, in series [1] (setting [5]), the “flavour profile: soft” value stood at 6, the “flavour profile: sweet” value is listed as 6, the “flavour profile: toffee” value was found to be 6 and the “flavour profile: vanillin” value came out at 3. In addition, the decomposition when heated entry in series [2] is “does not decompose”.
